Assay results reported in article PMC4184797, “The Structure, Stability and Pheromone Binding of the Male Mouse Protein Sex Pheromone Darcin” (PLoS ONE, 2014).

Tests used:
Format in all cases: binding
[1] = molecular target: T1, darcin (Mus musculus, UniProt Q5FW60); assay: ITC, one-site model, […] °C; also 1H-15N HSQC NMR titration
T1 construct: gene Mup20; N-terminal His6-tagged recombinant darcin (mature protein)
T1 sequence (Q5FW60 20-181): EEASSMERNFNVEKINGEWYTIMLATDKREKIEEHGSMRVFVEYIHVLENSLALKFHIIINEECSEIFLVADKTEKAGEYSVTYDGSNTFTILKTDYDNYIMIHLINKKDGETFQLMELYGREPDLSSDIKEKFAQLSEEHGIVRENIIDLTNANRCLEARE

[2] = molecular target: T2, MUP11 (Mus musculus, UniProt P04938); assay: as above
T2 construct: N-terminal His6-tagged recombinant MUP11 (mature protein)
T2 sequence (P04938 20-181): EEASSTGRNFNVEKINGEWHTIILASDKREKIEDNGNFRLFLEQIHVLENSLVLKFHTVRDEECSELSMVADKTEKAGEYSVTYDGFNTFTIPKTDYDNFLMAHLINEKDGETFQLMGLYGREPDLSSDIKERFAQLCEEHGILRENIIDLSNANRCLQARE

[3] = molecular target: T1, darcin; assay: 1H-15N HSQC NMR chemical shift perturbation
[4] = molecular target: T2, MUP11; assay: 1H-15N HSQC NMR chemical shift perturbation

SMILES | Kd [1] [nM] | Kd [2] [nM] | 1H-15N HSQC NMR chemical shift perturbation [3] | 1H-15N HSQC NMR chemical shift perturbation [4]
CCC(C)c1nccs1 (stereo not shown) [SBT, 2-sec-butyl-thiazole] | ~173 | ~2760 |  | 
CC1=CC(=O)c2ccccc2C1=O [K3, menadione] |  |  | The smaller ligands, K3 and SBT, bind to both darcin and MUP11 in the hydrophobic cavity of the beta barrel | The smaller ligands, K3 and SBT, bind to both darcin and MUP11 in the hydrophobic cavity of the beta barrel
